These results are taken from US20250129088A1, “CEREBLON E3 UBIQUITIN LIGASE INHIBITOR” (Gan & Lee Pharmaceuticals Co., Ltd., priority 2022, published 2025).

Each structure is given as a SMILES string.

In one assay the test system is MV-4-11 cells. Briefly: MV-4-11 cell proliferation inhibition, CCK-8. It is filed as cell-based. Conditions: Homo sapiens, MV4-11, 96 h, MV-4-11, 4 days, Table 6, positive control Alisertib. As for the experimental part: The complete medium required for MV-4-11 cells is IMDM (ATCC, Product number: 30-2005) basal medium containing 10% fetal bovine serum. MV-4-11 cells were seeded in a 96-well plate at a density of 7,500 cells/well, and different concentrations of the compound of the present invention and positive control samples Alisertib (source: Bide Pharmaceuticals), Palbociclib (source: Bide Pharmaceuticals), Ibrutinib (source Bide Pharmaceuticals) treated cells. The cells were incubated in a 37° C., 5% CO2 cell incubator for 4 days. Cell viability was detected using the CCK-8 kit (Beyotime, Product number: C0040) according to the manufacturer's instructions. According to the inhibition rate, GraphPad Prism software was used to calculate the IC50 value of each compound for 4 days, and the results are shown in Table 6-8.

Another assay has as its system K562 cells. The assay is described as follows: K562 cell proliferation inhibition, CCK-8. To be noted: K562, 4 days. Format: cell-based. As for the experimental part:
The complete medium required for K562 cells is IMDM (ATCC, Product number: 30-2005) basal medium containing 10% fetal bovine serum. K562 cells were seeded in a 96-well plate at a density of 7,500 cells/well, and different concentrations of the compound of the present invention and positive control samples Alisertib (source: Bide Pharmaceuticals) and dBET6 (source: Bide Pharmaceuticals) were prepared to treat the cells. The cells were incubated at a 37° C., 5% CO2 cell culture incubator for 4 days.
Cell viability was detected using the CCK-8 kit (Beyotime, Product number: C0040) according to the manufacturer's instructions. According to the inhibition rate, GraphPad Prism software was used to calculate the IC50 value of each compound for 4 days, and the results are shown in Table 11-12.

Where [1] appears, read: Homo sapiens, 96 h, Table 11, positive control Alisertib.
Setting [2] is: Homo sapiens, 96 h, Table 12, positive control dBET6.

The term IC50 denotes the midpoint of a concentration-inhibition curve. The low end stands for inhibition by little substance, the high end for a need for much substance. Regarding `COc1cc(Nc2ncc3c(n2)-c2ccc(Cl)cc2C(c2c(F)cccc2OC)=NC3)ccc1C(=O)N1CCC2(CCc3cc4c(cc3O2)CN(C2CCC(=O)NC2=O)C4=O)CC1` (stereo not shown) [PROTAC 1, 3-(1-(4-((9-chloro-7-(2-fluoro-6-methoxyphenyl)-5H-benzo[c]pyrimido[4,5-e]azepine-2-yl)amino)-2-methoxybenzoyl)-6′-oxo-3′,4′,6′,8′-tetrahydro-7′H-spiro[piperidine-4,2′-pyrano[2,3-f]isoindol]-7′-yl)piperidine-2,6-dione], the figures for the IC50 in the assay with MV-4-11 cells and in the assay on K562 cells (setting [1]) were 120 nM and 150 nM, respectively.

On to `COc1cc(Nc2ncc3c(n2)-c2ccc(Cl)cc2C(c2c(F)cccc2OC)=NC3)ccc1C(=O)N1CC2(CCc3cc4c(cc3O2)C(=O)N(C2CCC(=O)NC2=O)C4)C1` (stereo not shown) [PROTAC 4, 3-(1-(4-((9-chloro-7-(2-fluoro-6-methoxyphenyl)-5H-benzo[c]pyrimido[4,5-e]azepine-2-yl)amino)-2-methoxybenzoyl)-8′-oxo-3′,4′,6′,8′-tetrahydro-7′H-spiro[azetidine-3,2′-pyrano[2,3-f]isoindole]-7′-yl)piperidine-2,6-dione], for which the IC50 was 25 nM in the assay with MV-4-11 cells and 220 nM with K562 cells (setting [1]).

Turning to `COc1cc(Nc2ncc3c(n2)-c2ccc(Cl)cc2C(c2c(F)cccc2OC)=NC3)ccc1C(=O)N1CC2(CCc3cc4c(cc3O2)CN(C2CCC(=O)NC2=O)C4=O)C1` (stereo not shown) [PROTAC 3, 3-(1-(4-((9-chloro-7-(2-fluoro-6-methoxyphenyl)-5H-benzo[c]pyrimido[4,5-e]azepine-2-yl)amino)-2-methoxybenzoyl)-6′-oxo-3′,4′,6′,8′-tetrahydro-7′H-spiro[azetidine-3,2′-pyrano[2,3-f]isoindole]-7′-yl)piperidine-2,6-dione], the half-maximal inhibitory concentration (IC50) in the assay with MV-4-11 cells is 77 nM; in the assay with K562 cells (setting [1]), 410 nM.

Take `Cc1nc(Nc2ncc(C(=O)Nc3c(C)cccc3Cl)s2)cc(N2CCN(CCOCCC(=O)N3CC4(CCc5cc6c(cc5O4)CN(C4CCC(=O)NC4=O)C6=O)C3)CC2)n1` (stereo not shown) [PROTAC 16, N-(2-chloro-6-methylphenyl)-2-((6-(4-(2-(3-(7′-(2,6-dioxopiperidin-3-yl)-6′-oxo-4′,6′,7′,8′-tetrahydro-3′H-spiro[azetidine-3,2′-pyrano[2,3-f]isoindole]-1-yl)-3-oxopropoxy)ethyl)piperazin-1-yl)-2-methylpyrimidin-4-yl)amino)thiazole-5-carboxamide]: 48 nM corresponded to half-maximal inhibition with K562 cells (setting [2]) (IC50).

For `Cc1sc2c(c1C)C(c1ccc(Cl)cc1)=N[C@@H](CC(=O)NCCCCCCCCNC(=O)COc1cccc3c1C(=O)N(C1CCC(=O)NC1=O)C3=O)c1nnc(C)n1-2` (stereo partly shown) [dBET6, reference compound], in the assay with K562 cells (Table 12, positive control dBET6), the IC50 turned out to be 1 nM.

Take `Cc1nc(Nc2ncc(C(=O)Nc3c(C)cccc3Cl)s2)cc(N2CCN(CCOCCC(=O)N3CC4(CCc5cc6c(cc5O4)C(=O)N(C4CCC(=O)NC4=O)C6)C3)CC2)n1` (stereo not shown) [PROTAC 14, N-(2-chloro-6-methylphenyl)-2-((6-(4-(2-(3-(7′-(2,6-dioxopiperidin-3-yl)-8′-oxo-4′,6′,7′,8′-tetrahydro-3′H-spiro[azetidine-3,2′-pyrano[2,3-f]isoindol]-1-yl)-3-oxopropoxy)ethyl)piperazin-1-yl)-2-methylpyrimidin-4-yl)amino)thiazole-5-carboxamide]: the IC50 in the assay on K562 cells (setting [2]) came to 57 nM.

On to `Cc1nc(Nc2ncc(C(=O)Nc3c(C)cccc3Cl)s2)cc(N2CCN(CCOCCC(=O)N3CCC4(CCc5cc6c(cc5O4)C(=O)N(C4CCC(=O)NC4=O)C6)CC3)CC2)n1` (stereo not shown) [PROTAC 13, N-(2-chloro-6-methylphenyl)-2-((6-(4-(2-(3-(7′-(2,6-dioxopiperidin-3-yl)-8′-oxo-4′,6′,7′,8′-tetrahydro-3′H-spiro[piperidine-4,2′-pyrano[2,3-f]isoindole]-1-yl)-3-oxopropoxy)ethyl)piperazin-1-yl)-2-methylpyrimidin-4-yl)amino)thiazole-5-carboxamide], for which it took 20 nM to reach half-maximal inhibition in the assay on K562 cells (setting [2]) (IC50).
